Laboratory results taken from ChEMBL document CHEMBL4007467, “Effects of 6-paradol, an unsaturated ketone from gingers, on cytochrome P450-mediated drug metabolism” (Bioorg Med Chem Lett, 2017).

Key:
Format in all cases: ADME
[1] = target: T1, CYP1A2 (Homo sapiens, UniProt P05177); experiment: Inhibition of CYP1A2 in human liver microsomes assessed as enzyme-mediated metabolite formation at 30 uM using phenacetin as substrate incubated for 5 mins followed by NADPH addition measured after 30 mins by LC-MS/MS analysis relative to control; design: scale not given: the % may be the effect or the level left; settings: probe phenacetin, read-out: Activity
T1 sequence (P05177 whole entry): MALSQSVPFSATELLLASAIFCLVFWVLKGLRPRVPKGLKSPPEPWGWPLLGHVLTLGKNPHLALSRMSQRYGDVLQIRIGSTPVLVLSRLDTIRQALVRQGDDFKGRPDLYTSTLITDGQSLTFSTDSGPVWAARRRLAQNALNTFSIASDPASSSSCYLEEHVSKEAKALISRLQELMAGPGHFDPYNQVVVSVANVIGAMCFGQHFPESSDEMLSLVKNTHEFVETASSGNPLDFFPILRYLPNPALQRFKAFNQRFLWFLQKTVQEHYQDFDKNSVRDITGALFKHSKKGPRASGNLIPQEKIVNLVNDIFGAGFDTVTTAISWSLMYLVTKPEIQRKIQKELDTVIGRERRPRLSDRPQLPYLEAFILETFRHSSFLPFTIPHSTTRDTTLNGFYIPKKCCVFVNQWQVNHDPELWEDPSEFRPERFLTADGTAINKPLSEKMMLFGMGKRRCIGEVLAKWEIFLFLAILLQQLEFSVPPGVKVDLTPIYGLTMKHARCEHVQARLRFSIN

[2] = target: T2, CYP2B6 (Homo sapiens, UniProt P20813); experiment: Inhibition of CYP2B6 in human liver microsomes assessed as enzyme-mediated metabolite formation at 30 uM using bupropion as substrate incubated for 5 mins followed by NADPH addition measured after 30 mins by LC-MS/MS analysis relative to control; design: scale not given: the % may be the effect or the level left; settings: probe bupropion, read-out: Activity
T2 sequence (P20813 whole entry): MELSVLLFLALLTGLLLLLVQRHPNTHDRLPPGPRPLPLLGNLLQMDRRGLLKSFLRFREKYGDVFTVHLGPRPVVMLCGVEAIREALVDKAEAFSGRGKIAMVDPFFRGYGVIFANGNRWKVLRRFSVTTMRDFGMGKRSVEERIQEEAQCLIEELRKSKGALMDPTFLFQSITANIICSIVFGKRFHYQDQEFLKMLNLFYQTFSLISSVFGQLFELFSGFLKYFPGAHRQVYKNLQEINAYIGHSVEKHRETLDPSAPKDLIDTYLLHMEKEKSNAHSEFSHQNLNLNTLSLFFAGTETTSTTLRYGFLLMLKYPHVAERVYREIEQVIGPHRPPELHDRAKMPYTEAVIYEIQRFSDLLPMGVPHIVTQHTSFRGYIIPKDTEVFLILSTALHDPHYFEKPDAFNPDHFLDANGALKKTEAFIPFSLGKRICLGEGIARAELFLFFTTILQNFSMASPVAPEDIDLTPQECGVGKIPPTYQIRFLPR

[3] = target: CYP2C19 (Homo sapiens, UniProt P33261); experiment: Inhibition of CYP2C19 in human liver microsomes assessed as enzyme-mediated metabolite formation at 3 uM using (S)-mephenytoin as substrate incubated for 5 mins followed by NADPH addition measured after 30 mins by LC-MS/MS analysis relative to control; design: scale not given: the % may be the effect or the level left; settings: probe (S)-mephenytoin, read-out: Activity
CYP2C19, sequence (P33261 whole entry): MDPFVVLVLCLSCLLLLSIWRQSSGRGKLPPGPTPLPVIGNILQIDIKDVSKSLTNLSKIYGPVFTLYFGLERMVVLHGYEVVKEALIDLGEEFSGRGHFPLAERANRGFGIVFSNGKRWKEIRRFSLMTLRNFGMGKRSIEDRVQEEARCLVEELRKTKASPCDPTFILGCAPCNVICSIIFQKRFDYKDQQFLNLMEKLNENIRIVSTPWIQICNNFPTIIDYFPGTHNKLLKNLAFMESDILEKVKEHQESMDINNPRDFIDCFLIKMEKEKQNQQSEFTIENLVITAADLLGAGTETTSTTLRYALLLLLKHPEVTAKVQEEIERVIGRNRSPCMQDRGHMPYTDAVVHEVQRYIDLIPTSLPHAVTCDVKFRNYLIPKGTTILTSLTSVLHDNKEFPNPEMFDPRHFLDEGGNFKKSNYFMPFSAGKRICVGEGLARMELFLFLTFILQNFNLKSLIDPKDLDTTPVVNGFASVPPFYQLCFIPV

[4] = target: CYP2D6 (Homo sapiens, UniProt P10635); experiment: Inhibition of CYP2D6 in human liver microsomes assessed as enzyme-mediated metabolite formation at 1 uM using dextromethorphan as substrate incubated for 5 mins followed by NADPH addition measured after 30 mins by LC-MS/MS analysis relative to control; design: scale not given: the % may be the effect or the level left; settings: probe dextromethorphan, read-out: Activity
CYP2D6, sequence (P10635 whole entry): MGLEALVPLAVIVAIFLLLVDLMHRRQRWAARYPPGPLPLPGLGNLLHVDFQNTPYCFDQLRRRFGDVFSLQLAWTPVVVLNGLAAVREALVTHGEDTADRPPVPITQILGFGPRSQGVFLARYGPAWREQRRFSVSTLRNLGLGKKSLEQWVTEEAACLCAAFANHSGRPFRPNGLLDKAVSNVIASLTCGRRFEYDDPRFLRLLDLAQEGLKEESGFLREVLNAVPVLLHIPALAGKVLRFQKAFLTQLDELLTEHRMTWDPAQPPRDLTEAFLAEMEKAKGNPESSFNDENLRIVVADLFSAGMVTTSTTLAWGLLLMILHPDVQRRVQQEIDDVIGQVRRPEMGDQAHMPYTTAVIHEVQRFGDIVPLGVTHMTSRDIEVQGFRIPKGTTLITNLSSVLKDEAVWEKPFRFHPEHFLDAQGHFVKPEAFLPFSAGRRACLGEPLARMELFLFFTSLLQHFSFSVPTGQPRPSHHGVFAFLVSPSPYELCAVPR

[5] = target: T3, CYP3A4 (Homo sapiens, UniProt P08684); experiment: Inhibition of CYP3A4 in human liver microsomes assessed as enzyme-mediated metabolite formation at 0.1 uM using testosterone as substrate incubated for 5 mins followed by NADPH addition measured after 30 mins by LC-MS/MS analysis relative to control; design: scale not given: the % may be the effect or the level left; settings: probe testosterone, read-out: Activity
T3 sequence (P08684 whole entry): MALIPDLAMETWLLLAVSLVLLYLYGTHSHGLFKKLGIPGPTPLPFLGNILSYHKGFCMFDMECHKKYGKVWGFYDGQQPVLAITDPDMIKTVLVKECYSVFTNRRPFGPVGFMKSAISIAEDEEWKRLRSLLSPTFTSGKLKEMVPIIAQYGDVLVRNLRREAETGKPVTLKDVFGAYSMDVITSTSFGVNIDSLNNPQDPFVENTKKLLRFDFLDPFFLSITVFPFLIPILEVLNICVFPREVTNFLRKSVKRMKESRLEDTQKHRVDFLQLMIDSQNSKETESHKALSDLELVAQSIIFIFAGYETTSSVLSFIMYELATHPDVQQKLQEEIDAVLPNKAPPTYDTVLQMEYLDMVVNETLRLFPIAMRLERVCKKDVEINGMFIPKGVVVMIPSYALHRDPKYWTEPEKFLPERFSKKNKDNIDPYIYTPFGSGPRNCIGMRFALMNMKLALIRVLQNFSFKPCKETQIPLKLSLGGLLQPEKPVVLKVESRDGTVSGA

[6] = target: T3, CYP3A4; experiment: Inhibition of CYP3A4 in human liver microsomes assessed as enzyme-mediated metabolite formation at 10 uM using testosterone as substrate incubated for 5 mins followed by NADPH addition measured after 30 mins by LC-MS/MS analysis relative to control; design: scale not given: the % may be the effect or the level left; settings: probe testosterone, read-out: Activity
[7] = target: T1, CYP1A2; experiment: Inhibition of CYP1A2 in human liver microsomes assessed as enzyme-mediated metabolite formation at 30 uM using phenacetin as substrate preincubated for 20 mins followed by substrate addition measured after 30 mins in presence of NADPH by LC-MS/MS analysis relative to control; design: scale not given: the % may be the effect or the level left; settings: probe phenacetin, read-out: Activity
[8] = target: T4, CYP2A6 (Homo sapiens, UniProt P11509); experiment: Inhibition of CYP2A6 in human liver microsomes assessed as enzyme-mediated metabolite formation at 30 uM using coumarin as substrate preincubated for 20 mins followed by substrate addition measured after 30 mins in presence of NADPH by LC-MS/MS analysis relative to control; design: scale not given: the % may be the effect or the level left; settings: probe coumarin, read-out: Activity
T4 sequence (P11509 whole entry): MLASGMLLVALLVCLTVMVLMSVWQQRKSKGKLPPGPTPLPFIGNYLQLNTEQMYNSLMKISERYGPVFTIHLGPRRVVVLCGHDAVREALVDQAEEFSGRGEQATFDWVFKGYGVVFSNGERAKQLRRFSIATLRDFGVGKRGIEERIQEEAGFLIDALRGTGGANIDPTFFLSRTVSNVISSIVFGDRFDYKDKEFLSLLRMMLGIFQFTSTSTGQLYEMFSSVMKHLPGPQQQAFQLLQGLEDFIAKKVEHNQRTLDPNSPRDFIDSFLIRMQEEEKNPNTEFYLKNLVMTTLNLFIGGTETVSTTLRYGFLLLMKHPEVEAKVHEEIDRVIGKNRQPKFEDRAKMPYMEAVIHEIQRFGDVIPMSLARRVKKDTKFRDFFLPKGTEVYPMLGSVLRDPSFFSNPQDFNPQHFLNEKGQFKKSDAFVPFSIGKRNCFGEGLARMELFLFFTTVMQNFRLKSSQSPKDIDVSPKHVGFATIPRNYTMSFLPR

[9] = target: T2, CYP2B6; experiment: Inhibition of CYP2B6 in human liver microsomes assessed as enzyme-mediated metabolite formation at 3 uM using bupropion as substrate preincubated for 20 mins followed by substrate addition measured after 30 mins in presence of NADPH by LC-MS/MS analysis relative to control; design: scale not given: the % may be the effect or the level left; settings: probe bupropion, read-out: Activity
[10] = target: T5, Cytochrome P450 2B6 (Homo sapiens, UniProt P20813); experiment: Inhibition of CYP2B6 in human liver microsomes using bupropion as substrate preincubated for 20 mins followed by substrate addition measured after 30 mins in presence of NADPH by LC-MS/MS analysis
T5 sequence (P20813 whole entry): T2 sequence (P20813 whole entry)

[11] = target: Cytochrome P450 2C19 (Homo sapiens, UniProt P33261); experiment: Inhibition of CYP2C19 in human liver microsomes using (S)-mephenytoin as substrate preincubated for 20 mins followed by substrate addition measured after 30 mins in presence of NADPH by LC-MS/MS analysis
Cytochrome P450 2C19, sequence (P33261 whole entry): as the sequence (P33261 whole entry) above

[12] = target: T3, CYP3A4; experiment: Inhibition of CYP3A4 in human liver microsomes assessed as enzyme-mediated metabolite formation at 30 uM using midazolam as substrate preincubated for 20 mins followed by substrate addition measured after 30 mins in presence of NADPH by LC-MS/MS analysis relative to control; design: scale not given: the % may be the effect or the level left; settings: probe midazolam, read-out: Activity

activity at 0.5 h, 30 µM [1]: 35.5% | activity at 0.5 h, 30 µM [2]: 37% | activity at 0.5 h, 3 µM [3]: 78.6% | activity at 0.5 h, 1 µM [4]: 75.9% | activity at 0.5 h, 0.1 µM [5]: 100% | activity at 0.5 h, 10 µM [6]: 58.6% | activity at 0.5 h, 30 µM [7]: 42.8% | activity at 0.5 h, 30 µM [8]: 79.9% | activity at 0.5 h, 3 µM [9]: 77.3% | IC50 [10]: 6.3 µM | IC50 [11]: 3.6 µM | activity at 0.5 h, 30 µM [12]: 97.6%
SMILES: CCCCCCCC(=O)CCc1ccc(O)c(OC)c1
